According to US20230338307A1, “PROPHYLACTIC AGENT, AMELIORATING AGENT, AND THERAPEUTIC AGENT FOR DRY EYE” (TSUBOTA LABORATORY, INC., priority 2020, published 2023):

Experiments:
dry eye model [1] = assay: Fluorescein staining score (corneal epithelial damage), dry eye model by erlotinib instillation (Example 1); type: in vivo; conditions: 0.003% (w/v) apocynin eye drop twice daily, two weeks; erlotinib-instilled mice; FIG. 3
From the text: After acclimating male C57BL6 mice (7 weeks old) to the experimental environment, those with almost uniform body weight values and no eye abnormalities were divided into the following 3 groups (n=5). • 7 weeks old/normal (non-dry eye group) • 7 weeks old/dry eye model+control (solvent eye drop) group • 7 weeks old/dry eye model+apocynin eye drop group The dry eye model was created by daily instillation of an EGF receptor inhibitor (erlotinib) based on the method of Yang et al. In this model, administration of erlotinib causes dry eye symptoms such as shortened BUT, decreased tear volume, and corneal damage after 1 week of administration (Non-patent Document 3). After 20 μM of erlotinib was instilled for 2 weeks, the control group received PBS alone, and the test group received 3 μL of a suspension of 0.003% (w/v) apocynin in PBS twice daily. […] Under anesthesia, the tip of a Schirmer test paper cut to 1 mm width was inserted into the conjunctival sac of the lower eyelid of the mouse, the test paper was removed after 5 minutes, the length of the wetted part was read in units of 0.5 mm, and the value was used as the tear volume (FIG. 2). In the dry eye model prepared in Example 1, after BUT measurement, fluorescein-stained images were photographed under a blue filter using a slit lamp (Kowa Co., Ltd., SL-17), and corneal epithelial damage was analyzed (FIG. 3). […]

dry eye model [2] = assay: Fluorescein staining score, dry eye model by 0.2% benzalkonium chloride instillation (Example 2); type: in vivo, mice; conditions: 0.003% (w/v) apocynin in PBS, 3 μL 4 times daily, two days after start; 0.2% benzalkonium chloride model; FIG. 4
From the text: After acclimating male C57BL6 mice ([…]) to the experimental environment, those with almost uniform weight values and no eye abnormalities were divided into the following 3 groups (n=3). • 7 weeks old/normal (non-dry eye group) • 7 weeks old/dry eye model+control (solvent eye drop) group • 7 weeks old/dry eye model+apocynin eye drop group The dry eye model was created by instilling a 0.2% benzalkonium chloride solution based on the method of Lin et al. (Non-patent Document 4). In this model, instillation of the 0.2% benzalkonium chloride solution causes dry eye symptoms such as shortened BUT, decreased tear volume, and corneal epithelial damage after 1 day of administration (Non-patent Document 4). After the benzalkonium chloride solution was instilled twice daily for 2 days, PBS alone was administered to the control group, and for the test group, a solution of apocynin 0.003% (w/v) suspended in PBS was administered to both eyes at 3 μL each, 4 times daily. Two days after the start of apocynin instillation, 1 μL of 0.1% fluorescein sodium solution was instilled into each of both eyes under isoflurane anesthesia, and stained images were taken under a blue filter using a slit lamp (Kowa Co., Ltd., SL-17). The fluorescein staining scores were analyzed (FIG. 4).

dry eye model [3] = assay: Schirmer test (tear volume), benzalkonium chloride dry eye model, Comparative Study 1 (Example 4); type: in vivo, mice; conditions: 0.1% (w/v) apocynin in 0.5% methylcellulose twice a day, 3 days after start; versus 0.5% (w/v) hyaluronic acid group; FIG. 8
Method: (§1) After acclimating male C57BL6 mice (7 weeks old) to the experimental environment, those with almost uniform weight values and no eye abnormalities were divided into the following groups (n=4). • 7 weeks old/normal (non-dry eye group) • 7 weeks old/dry eye model+control (solvent eye drop) group • 7 weeks old/dry eye model+0.1% (w/v) apocynin eye drop group • 7 weeks old/dry eye model+0.5% (w/v) hyaluronic acid eye drop group A dry eye model was prepared by instilling the benzalkonium chloride solution at 3 μL each eye, twice a day for 8 days. After that, the control group received the 0.5% methylcellulose solution alone, and the test group received 0.1% (w/v) apocynin or 0.5% (w/v) hyaluronic acid suspended in the 0.5% methylcellulose solution twice a day for 15 days at 3 μL for each of both eyes. Schirmer's test was performed 1, 3, 6, and 8 days after the start of instillation of the comparative test drug, and tear volume was evaluated.

dry eye model [4] = assay: Fluorescein staining score, benzalkonium chloride dry eye model, Comparative Study 1 (Example 4); type: in vivo, mice
Method: as §1, with “eyes. In Example 4,” for “eyes. Schirmer's test was performed”, “6, 8,” for “6,”, “and 15” for “and 8”, “drug, 1 μL of the 0.1% fluorescein sodium solution was instilled into each of both eyes. Fluorescein-stained images were observed under a blue filter using a slit lamp (Kowa Co., Ltd., SL-17),” for “drug,”, “and the degree of corneal epithelial damage” for “and tear volume”, “was scored.” for “was evaluated.”

dry eye model [5] = assay: Fluorescein staining score, 0.2% benzalkonium chloride dry eye model, Comparative Study 2 (Example 5); type: in vivo, mice
From the text: After acclimating male C57BL6 mice (7 weeks old) to the experimental environment, those with almost uniform weight values and no eye abnormalities were divided into the following groups (n=3 to 4). • 7 weeks old/normal (non-dry eye group) • 7 weeks old/dry eye model+control (solvent eye drop) group • 7 weeks old/dry eye model+0.003% (w/v) apocynin eye drop group • 7 weeks old/dry eye model+0.03% (w/v) apocynin eye drop group • 7 weeks old/dry eye model+3% diquafosol sodium eye drop group • 7 weeks old/dry eye model+0.5% (w/v) hyaluronic acid eye drop group A dry eye model was created by instilling 3 μL of the 0.2% benzalkonium chloride solution into each of both eyes twice a day for 8 days. Then, the control group received PBS alone, and the test group received 0.003% (w/v), 0.03% (w/v) apocynin and 0.5% (w/v) hyaluronic acid in PBS. The 3% diquafosol sodium eye drop was instilled into each of both eyes at 3 μL, twice a day for 9 days. In Example 5, 1, 2, 5, and 9 days after the start of instillation of the comparative test drug, 1 μL of 0.1% sodium fluorescein solution was instilled into each of both eyes. Fluorescein-stained images were observed under a blue filter using a slit lamp (Kowa Co., Ltd., SL-17), and the degree of corneal epithelial damage was scored.

COc1cc(C(C)=O)ccc1O [apocynin, 4-hydroxy-3-methoxyacetophenone]
corneal epithelial damage (fluorescein staining score) (dry eye model [1]): significant improvement was observed
corneal epithelial damage (fluorescein staining score) (dry eye model [2]): significantly improved
tear volume (Schirmer test) (dry eye model [3]): marked improvement in the tear volume compared to the hyaluronic acid eye drop group
fluorescein staining score (corneal damage) (dry eye model [4]; 3 days after start of instillation, compared to control, 0.1% (w/v) apocynin or 0.5% (w/v) hyaluronic acid twice a day, FIG. 9A): significantly reduced
fluorescein staining score (corneal damage) (dry eye model [4]; 15 days after start of instillation, 0.1% (w/v) apocynin twice a day, FIG. 9B): significant decrease
fluorescein staining score (corneal epithelial damage) (dry eye model [5]; 0.003% apocynin eye drop, 9 days after start, compared to control, hyaluronic acid and diquafosol sodium groups, FIG. 11B): significantly improved
fluorescein staining score (corneal epithelial damage) (dry eye model [5]; 0.03% apocynin eye drop, 9 days after start, compared to control, hyaluronic acid and diquafosol sodium groups, FIG. 11B): significantly improved
fluorescein staining score (corneal epithelial damage) (dry eye model [5]; two days after start, compared with control, 0.03% apocynin, 0.5% (w/v) hyaluronic acid or 3% diquafosol sodium twice a day, FIG. 11A): decreased significantly
